Format in all cases: functional, organism-based
Assay [1] relates to Glycine max. Description: Herbicidal activity against Glycine max (soybean) grown in slit loam soil at pH 6.0 assessed as chlorophyll bleaching effect on shoots compound treated to soil measured after 10 days relative to untreated control.
The subject of assay [2] is Glycine max. Description: Herbicidal activity against Glycine max (soybean) grown in slit loam soil at pH 7.6 assessed as chlorophyll bleaching effect on shoots compound treated to soil measured after 10 days relative to untreated control.
Assay [3] deals with Glycine max. Kind of assay: Herbicidal activity against Glycine max (soybean) grown in loam soil at pH 5.5 assessed as chlorophyll bleaching effect on shoots compound treated to soil measured after 10 days relative to untreated control.
For assay [4], the system named is Glycine max. Description: Herbicidal activity against Glycine max (soybean) grown in sandy soil at pH 8.0 assessed as chlorophyll bleaching effect on shoots compound treated to soil measured after 10 days relative to untreated control.
In assay [5] the test system is Glycine max. Description: Herbicidal activity against Glycine max (soybean) grown in sandy clay loam soil at pH 7.9 assessed as chlorophyll bleaching effect on shoots compound treated to soil measured after 10 days relative to untreated control.
Assay [6] concerns Glycine max. Description: Herbicidal activity against Glycine max (soybean) grown in clay soil at pH 8.0 assessed as chlorophyll bleaching effect on shoots compound treated to soil measured after 10 days relative to untreated control.
For assay [7], the system named is Glycine max. Kind of assay: Herbicidal activity against Glycine max (soybean) grown in loam soil at pH 5.8 assessed as chlorophyll bleaching effect on shoots compound treated to soil measured after 10 days relative to untreated control.
Assay [8] has as its system Glycine max. Kind of assay: Herbicidal activity against Glycine max (soybean) grown in sandy clay loam soil at pH 5.7 assessed as chlorophyll bleaching effect on shoots compound treated to soil measured after 10 days relative to untreated control.

Here are results for one molecule from ChEMBL document CHEMBL3045191, “Effect of soil type on adsorption-desorption, mobility, and activity of the herbicide norflurazon” (J Agric Food Chem, 2004).

As for `CNc1cnn(-c2cccc(C(F)(F)F)c2)c(=O)c1Cl` [NORFLURAZONE], the IC50 in the assay with Glycine max [1] was found to be 1.94 mg/kg; in the assay on Glycine max [2] it was 1.68 mg/kg; in the assay with Glycine max [3], 0.87 mg/kg; in the assay on Glycine max [4], 0.08 mg/kg; in the assay with Glycine max [5] it was 0.22 mg/kg; with Glycine max [6], 1.04 mg/kg. The IC50 in the assay on Glycine max [7] was determined as 1.98 mg/kg; with Glycine max [8], 0.43 mg/kg.
